“And” between values parts separate entries of the source, which are not always exact repeats. Equal entries are not always repeated. The source made the active and inactive calls. How the calls were made is not given here.
target: Neurotensin receptor type 2 (Homo sapiens) (UniProt O95665); assay: NTR2 agonist activity for selectivity, SAR follow-up, selectivity assay for NTR1 agonist project, imaging, image-based, set 2 (AID 602334); conditions: NTR2-expressing cells, image-based receptor agonism assay
Sequence (O95665 whole entry, looked up): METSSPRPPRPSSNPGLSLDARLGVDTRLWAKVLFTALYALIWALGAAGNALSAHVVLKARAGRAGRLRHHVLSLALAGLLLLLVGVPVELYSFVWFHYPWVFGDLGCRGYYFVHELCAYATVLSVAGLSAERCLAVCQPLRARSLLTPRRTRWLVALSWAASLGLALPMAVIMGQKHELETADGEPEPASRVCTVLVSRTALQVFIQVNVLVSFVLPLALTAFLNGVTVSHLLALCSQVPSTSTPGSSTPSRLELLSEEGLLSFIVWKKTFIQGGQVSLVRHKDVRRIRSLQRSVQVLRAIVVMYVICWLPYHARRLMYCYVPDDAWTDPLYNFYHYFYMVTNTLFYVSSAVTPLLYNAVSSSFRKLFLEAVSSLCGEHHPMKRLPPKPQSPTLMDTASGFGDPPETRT

| SMILES | EC50 |
| --- | --- |
| COc1cc2nc(C3CCC3)nc(N3CCN(c4ccccc4)CC3)c2cc1OC | > 80 µM (inactive) |
| COc1cc2nc(C3CCC3)nc(N3CCN(c4ccccc4F)CC3)c2cc1OC | > 80 µM (inactive) |
| COc1cc2nc(C3CC3)nc(N3CCN(C(=O)OC(C)(C)C)CC3)c2cc1OC | > 80 µM (inactive) |
| COc1cc2c3nnc(-c4ccc(F)cc4)c-3cn(Cc3ccccc3C)c2cc1OC | 6.91 µM |
| COc1cc2nc(C3CCC3)nc(N3CCN(c4ccccc4Cl)CC3)c2cc1OC | > 80 µM (inactive) |
| Fc1ccc(-c2nnc3c4cc5c(cc4n(Cc4ccccc4)cc2-3)OCO5)cc1 | > 80 µM (inactive) |
| COc1cc2nc(C3CCC3)nc(N3CCN(c4c(C)cccc4C)CC3)c2cc1OC | > 80 µM (inactive) |
| COc1cc2nc(C3CC3)nc(N3CCN(C(=O)c4ccccc4OC)CC3)c2cc1OC | > 80 µM (inactive) |
| COc1cc2c3nnc(-c4ccc(F)cc4)c-3cn(Cc3ccccc3N(C)C)c2cc1OC | 4.37 µM and 3.73 µM |
| COc1cc2c3nnc(-c4ccc(F)cc4)c-3cn(Cc3ccc(C)cc3C)c2cc1OC | 11 µM |
| COc1cc2nc(CC3CC3)nc(N3CCN(c4ccccc4OC)CC3)c2cc1OC | > 80 µM (inactive) |
| Cc1cccc(C)c1-c1nc(C(=O)N[C@@H](CC(C)C)C(=O)O)cn1-c1ccnc2cc(Cl)ccc12 | > 80 µM (inactive) |
| COc1cc2nc(C3CC3)nc(N3CCN(S(=O)(=O)c4ccccc4)CC3)c2cc1OC | > 80 µM (inactive) |
| COc1cc2nc(C3CC3)nc(N3CCNCC3)c2cc1OC | > 80 µM (inactive) |
| COc1cc2nc(CCN3CCN(c4ccccc4OC)CC3)nc(N3CCN(c4ccccc4OC)CC3)c2cc1OC | > 80 µM (inactive) |
| COc1cc2c3nnc(-c4ccccc4)c-3cn(Cc3ccccc3)c2cc1OC | inactive |
| COc1cc2nc(C3CC3)nc(N3CCN(Cc4ccc(C)cc4)CC3)c2cc1OC | > 80 µM (inactive) |
| Fc1ccc(Cn2cc3c(-c4ccc(Cl)cc4)nnc-3c3cc4c(cc32)OCO4)cc1 | inactive |
| COc1cc2nc(C3CCC3)nc(N3CCN(c4ccccn4)CC3)c2cc1OC | > 80 µM (inactive) |
| COc1ccc2nc(C3CC3)nc(N3CCN(c4ccccc4OC)CC3)c2c1 | > 80 µM (inactive) |
| COc1cccc(OC)c1-c1nc(C(=O)N[C@@H](CC(C)C)C(=O)O)cn1-c1cccc2ccccc12 | > 80 µM (inactive) |
| COc1cccc(OC)c1-c1nc(C(=O)N[C@@H](CC(C)C)C(=O)O)cn1-c1ccnc2cc(Cl)ccc12 | > 80 µM (inactive) |
| COc1ccccc1CN1CCN(c2nc(C3CC3)nc3cc(OC)c(OC)cc23)CC1 | > 80 µM (inactive) |
| COc1cc2nc(C3CC3)nc(N3CCN(C(=O)c4ccccc4)CC3)c2cc1OC | > 80 µM (inactive) |
| CC(C)C[C@H](NC(=O)c1cn(-c2ccnc3cc(Cl)ccc23)c(-c2c(Cl)cccc2Cl)n1)C(=O)O | > 80 µM (inactive) |

| SMILES | EC50 |
| --- | --- |
| COc1ccc(N2CCN(c3nc(C4CCC4)nc4cc(OC)c(OC)cc34)CC2)c(OC)c1 | > 80 µM (inactive) |
| COc1cc2nc(CCN(C)C)nc(N3CCN(c4ccccc4OC)CC3)c2cc1OC | > 80 µM (inactive) |
| COc1cccc(OC)c1-c1nc(C(=O)N[C@H](CC(C)C)C(=O)O)cn1-c1ccnc2cc(Cl)ccc12 | > 80 µM (inactive) |
| COc1cc2c3nnc(-c4ccc(F)cc4)c-3cn(Cc3ccccc3F)c2cc1OC | 3.61 µM |
| COc1cc2nc(C3CCCC3)nc(N3CCN(c4ccccc4OC)CC3)c2cc1OC | > 80 µM (inactive) |
| COc1cc2nc(C3CCC3)nc(N3CCN(c4ccccc4C)CC3)c2cc1OC | > 80 µM (inactive) |
| CCCc1nc(N2CCN(c3ccccc3OC)CC2)c2cc(OC)c(OC)cc2n1 | > 80 µM (inactive) |
| COc1cc2nc(C3CCC3)nc(N3CCN(c4ccccc4OC)CC3)c2cc1OC | > 80 µM (inactive) |
| COc1cc2nc(Cc3ccccc3)nc(N3CCN(c4ccccc4OC)CC3)c2cc1OC | > 80 µM (inactive) |
| COc1cc2nc(C(C)C)nc(N3CCN(c4ccccc4OC)CC3)c2cc1OC | > 80 µM (inactive) |
| COc1ccc2nc(C3CCC3)nc(N3CCN(c4ccccc4OC)CC3)c2c1 | > 80 µM (inactive) |
| CCOc1ccccc1N1CCN(c2nc(C3CC3)nc3cc(OC)c(OC)cc23)CC1 | > 80 µM (inactive) |
| Cc1ccc(-c2nnc3c4cc5c(cc4n(Cc4ccccc4)cc2-3)OCO5)cc1C | 1.78 µM |
| COc1ccccc1-c1cc(C(=O)N[C@@H](CC(C)C)C(=O)O)nn1-c1ccnc2cc(Cl)ccc12 | > 80 µM (inactive) |
| Fc1ccc(Cn2cc3c(-c4ccc(F)cc4)nnc-3c3cc4c(cc32)OCO4)cc1 | inactive |
| COc1cc2nc(C3CC3)nc(N3CCN(c4ccccc4Cl)CC3)c2cc1OC | > 80 µM (inactive) |
| COc1cccc(OC)c1-c1cc(C(=O)N[C@@H](CC(C)C)C(=O)OC(C)(C)C)nn1-c1ccnc2cc(Cl)ccc12 | > 80 µM (inactive) |
| COc1cc2nc(CC(C)C)nc(N3CCN(c4ccccc4OC)CC3)c2cc1OC | > 80 µM (inactive) |
| C=Cc1nc(N2CCN(c3ccccc3OC)CC2)c2cc(OC)c(OC)cc2n1 | > 80 µM (inactive) |
| COc1cccc(OC)c1-c1cc(C(=O)N[C@@H](CC(C)C)C(=O)O)nn1-c1ccnc2cc(Cl)ccc12 | > 80 µM (inactive) |
| COc1cc2nc(C3CCC3)nc(N3CCN(c4ccccc4[N+](=O)[O-])CC3)c2cc1OC | > 80 µM (inactive) |
| COc1cccc(OC)c1-c1nc(C(=O)N[C@@H](CC(C)C)C(=O)O)cn1-c1ccnc2ccccc12 | > 80 µM (inactive) |
| CCc1nc(N2CCN(c3ccccc3OC)CC2)c2cc(OC)c(OC)cc2n1 | > 80 µM (inactive) |
| COc1cc2nc(C3CC3)nc(N3CCN(c4ccccc4OC)CC3)c2cc1OC | > 80 µM (inactive) |
| COc1cc2c3nnc(-c4ccc(C)c(C)c4)c-3cn(Cc3ccccc3)c2cc1OC | > 80 µM (inactive) |

Next, values leading:

| EC50 | SMILES |
| --- | --- |
| 10.2 µM and 9.29 µM | COc1cc2c3nnc(-c4ccc(F)cc4)c-3cn(Cc3cccc(C)c3)c2cc1OC |
| > 80 µM (inactive) | COc1cc2c3nnc(-c4ccc(F)cc4)c-3cn(Cc3ccncc3)c2cc1OC |
| inactive | COc1ccc2c(c1)c1nnc(-c3ccc(F)cc3)c-1cn2Cc1ccc(F)cc1 |
| inactive | COc1cc2c3nnc(-c4ccc(F)cc4)c-3cn(Cc3ccc(F)cc3)c2cc1OC |
| 12.7 µM | COc1cc2c3nnc(-c4ccc(C)cc4)c-3cn(Cc3ccc(C)cc3)c2cc1OC |
| inactive | COc1ccc(-c2nnc3c4cc(OC)c(OC)cc4n(Cc4ccccc4)cc2-3)cc1 |
| > 80 µM (inactive) | CCOc1ccc(-c2nnc3c4cc(OC)c(OC)cc4n(Cc4ccccc4)cc2-3)cc1 |
| > 80 µM (inactive) | COc1ccc2c3nnc(-c4ccc(C)cc4)c-3cn(Cc3ccc(C)cc3)c2c1 |
| > 80 µM (inactive) | COc1ccc2c3nnc(-c4ccc(C)cc4)c-3cn(Cc3ccc(F)cc3)c2c1 |
| inactive | CCc1ccc(-c2nnc3c4cc(OC)c(OC)cc4n(Cc4ccc(F)cc4)cc2-3)cc1 |
| 8.36 µM | COc1cc2c3nnc(-c4ccc(Cl)cc4)c-3cn(Cc3ccc(F)cc3)c2cc1OC |
| > 80 µM (inactive) | CCOc1ccc(-c2nnc3c4cc(OC)c(OC)cc4n(Cc4ccc(F)cc4)cc2-3)cc1 |
| 10.6 µM | COc1ccc(-c2nnc3c4cc(OC)c(OC)cc4n(Cc4ccc(C)cc4)cc2-3)cc1 |
| inactive | Cc1ccc(Cn2cc3c(-c4ccc(C)c(C)c4)nnc-3c3cc4c(cc32)OCO4)cc1 |
| > 80 µM (inactive) | COc1cc2c3nnc(-c4ccc(Cl)cc4)c-3cn(Cc3ccc(C)cc3)c2cc1OC |
| 15 µM and 15.7 µM | COc1cc2c3nnc(-c4ccc(F)cc4)c-3cn(Cc3ccc(C)cc3)c2cc1OC |
| > 80 µM (inactive) | Cc1ccc(Cn2cc3c(-c4ccc(F)cc4)nnc-3c3cc4c(cc32)OCO4)cc1 |
| 9.08 µM | COc1cc2c3nnc(-c4ccc(C)cc4)c-3cn(Cc3ccc(F)cc3)c2cc1OC |
| > 80 µM (inactive) | COc1cc2c3nnc(-c4ccccc4)c-3cn(Cc3ccc(F)cc3)c2cc1OC |
| 8.47 µM | COc1cc2c3nnc(-c4ccc(Cl)cc4)c-3cn(Cc3ccccc3)c2cc1OC |
| 9.39 µM and 7.28 µM | COc1cc2c3nnc(-c4ccc(F)cc4)c-3cn(Cc3ccccc3)c2cc1OC |
| inactive | COc1cc2c3nnc(-c4ccc(C)c(C)c4)c-3cn(Cc3ccc(F)cc3)c2cc1OC |
| 14.7 µM | COc1ccc(Cn2cc3c(-c4ccc(F)cc4)nnc-3c3cc(OC)c(OC)cc32)cc1 |
| 17 µM | COc1ccc2c(c1)c1nnc(-c3ccc(F)cc3)c-1cn2Cc1ccccc1 |
| inactive | Cc1ccc(-c2nnc3c4cc5c(cc4n(Cc4ccc(F)cc4)cc2-3)OCO5)cc1 |
| inactive | COc1ccc2c3nnc(-c4ccc(C)cc4)c-3cn(Cc3ccccc3)c2c1 |
| 15.8 µM | COc1cc2c3nnc(-c4ccc(F)cc4)c-3cn(Cc3ccc(Cl)cc3)c2cc1OC |
| > 80 µM (inactive) | CCOc1ccc(-c2nnc3c4cc(OC)c(OC)cc4n(Cc4ccc(C)cc4)cc2-3)cc1 |

From PubChem BioAssay AID602334 (Sanford-Burnham Center for Chemical Genomics, 2012)
